Laboratory results from patent US5733920A, “Inhibitors of cyclin dependent kinases” (Mitotix, Inc., priority 1995, dated 1998).

Target: T1, CDK4/Cyclin D1 (Homo sapiens, UniProt P11802)
T1 construct: made in house; host or cells: insect cells (crude cell lysate)
Test: Cyclin D1/cdk4 phosphoRb in vitro kinase assay
Type: biochemical
Details: compared with Compound 4 and Compound 1 (esters or ethers)
From the text: The efficacy of a compound in inhibiting the activity of cyclin-dependent kinases can be determined by several methods well known in the art, such as a kinase assay, as described in the Examples section herein, or as described in Losiewics, M. D., et al. (1994) Biochem. Biophys. Res. Commun. 201, 589. Thus, a complex containing the cyclin-dependent kinase and a cyclin is first isolated either from a recombinant source, or immunoprecipitated from cells synchronized at the stage at which a particular cyclin-dependent kinase is present at high levels in the cell. The immunoprecipitates are then incubated in the presence of radiolabelled ATP and an appropriate substrate with various amounts of the inhibitor. The amount of radioactivity associated with the substrate protein can then be determined by various methods well known in the art. The substrate used for the kinase assay will depend on the specific kinase. Typically, histone H1 or CDK1 S1 is used as a substrate for the CDC2 kinase and the retinoblastoma protein is used as a substrate in a kinase assay for CDK4. The kinases, cyclins, and substrates used in the in vitro kinase assay can be proteins isolated from mammalian cells, or alternatively, they can be proteins produced recombinantly, such as in E. Coli.
This example is an illustration of the cyclin-dependent kinase inhibitory activity of the compounds of the invention. The kinase inhibitory activity of several compounds of the invention was determined using an in vitro kinase assay in which the kinase activity of the CDK4 kinase was measured using a Cyclin D1/cdk4 phosphoRb Assay. Briefly, the assay employs cell lysates from insect cells expressing cyclin D1 and cdk4 kinase. The cyclin/cdk lysate is combined in a microtitre-type plate along with a kinase compatible buffer, ^32 P-labeled ATP, a GST-Rb fusion protein, and the test agent. The kinase reaction is allowed to proceed with the radiolabeled ATP, then effectively stopped by the addition of a large excess of unlabeled ATP. The GST-Rb protein is sequestered on a GSH-Sepharose bead suspension, washed, resuspended in scintilant, and ^32 P activity detected in a scintillation counter. The concentration of compound at which 50% of the kinase activity was blocked (IC50) was calculated for each compound.

T1 sequence (P11802 whole entry, species assumed): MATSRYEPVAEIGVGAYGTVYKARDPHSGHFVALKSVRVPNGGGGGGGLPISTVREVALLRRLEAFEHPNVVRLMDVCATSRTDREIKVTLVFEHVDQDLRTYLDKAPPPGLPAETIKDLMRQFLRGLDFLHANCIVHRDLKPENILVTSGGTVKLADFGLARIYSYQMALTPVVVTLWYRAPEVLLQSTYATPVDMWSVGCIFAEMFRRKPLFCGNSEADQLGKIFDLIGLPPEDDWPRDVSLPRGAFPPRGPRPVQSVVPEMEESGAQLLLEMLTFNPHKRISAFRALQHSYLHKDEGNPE
T1 sequence (P24385 whole entry partner, species assumed): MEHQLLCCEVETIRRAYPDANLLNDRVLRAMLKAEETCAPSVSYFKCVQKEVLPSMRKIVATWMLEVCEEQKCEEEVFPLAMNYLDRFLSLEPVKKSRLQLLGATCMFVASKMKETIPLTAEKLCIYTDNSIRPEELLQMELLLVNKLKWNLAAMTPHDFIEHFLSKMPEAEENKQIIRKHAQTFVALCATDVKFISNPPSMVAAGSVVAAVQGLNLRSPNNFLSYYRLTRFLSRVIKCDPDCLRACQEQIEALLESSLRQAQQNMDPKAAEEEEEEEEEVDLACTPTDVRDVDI

| SMILES | relative potency of inhibition of CDK4/cyclin D1 |
| --- | --- |
| CN1CC=C(c2c(O)cc(O)c3c(=O)cc(-c4ccccc4Cl)oc23)CC1 [Compound 3] | much more potent inhibitors of CDK4/cyclin D1 |
| CN1CCC(c2c(O)cc(O)c3c(=O)cc(-c4ccccc4Cl)oc23)C(=O)C1 (centres unmarked) [Compound 5] | much more potent inhibitors of CDK4/cyclin D1 |

Same assay, conditions: insect cell lysates expressing cyclin D1 and cdk4; GST-Rb substrate; 32P-ATP; read-out: IC50, inhibition of CDK4/Cyclin D1

| SMILES | IC50 [µM] |
| --- | --- |
| COc1cc(OC)c2c(=O)cc(-c3ccccc3Cl)oc2c1[C@@H]1CN(C)CC[C@@H]1O (relative stereo) [Compound 13] | < 250 |
| COc1cc(OC)c2c(=O)cc(-c3ccccc3Cl)oc2c1C1=CCN(C)CC1 [Compound 1] | < 250 |
| CN1CC=C(c2c(O)cc(O)c3c(=O)cc(-c4ccccc4Cl)oc23)CC1 [Compound 3] | < 50 |

Second part, the compound after the results:

| IC50 [µM] | SMILES |
| --- | --- |
| < 150 | CN1CC[C@H](O)[C@H](c2c(O)cc(O)c3c(=O)cc(-c4ccccc4Cl)oc23)C1 (relative stereo) [Compound 14] |
| 230 | COc1cc(OC)c2c(=O)cc(-c3ccccc3Cl)oc2c1C1CCN(C)CC1=O (centres unmarked) [Compound 4] |
| < 50 | CN1CCC(c2c(O)cc(O)c3c(=O)cc(-c4ccccc4Cl)oc23)C(=O)C1 (centres unmarked) [Compound 5] |
